Assay results published in ChEMBL document CHEMBL4373724, “An overview of recent progress in siderophore-antibiotic conjugates” (2019).
Converted amounts (≈) assume the structure as drawn.

Tests used:
Type in all cases: functional
Pseudomonas aeruginosa [1] = assay: Antimicrobial activity against Pseudomonas aeruginosa X620 under iron-deficient condition by broth microdilution method
Pseudomonas aeruginosa [2] = assay: Antimicrobial activity against Pseudomonas aeruginosa X620 under iron-sufficient condition by broth microdilution method
Pseudomonas aeruginosa [3] = assay: Antimicrobial activity against Pseudomonas aeruginosa X621 under iron-deficient condition by broth microdilution method
Staphylococcus aureus [4] = assay: Antimicrobial activity against Staphylococcus aureus X1.1 under iron-deficient condition by broth microdilution method
Staphylococcus aureus [5] = assay: Antimicrobial activity against Staphylococcus aureus X1.1 under iron-sufficient condition by broth microdilution method
Micrococcus luteus [6] = assay: Antimicrobial activity against Micrococcus luteus under iron-deficient condition by broth microdilution method
Escherichia coli [7] = assay: Antimicrobial activity against Escherichia coli X580 under iron-deficient condition by broth microdilution method
Escherichia coli [8] = assay: Antimicrobial activity against Escherichia coli X580 under iron-sufficient condition by broth microdilution method
Escherichia coli [9] = assay: Antimicrobial activity against Escherichia coli EC14 under iron-sufficient condition by broth microdilution method
Micrococcus luteus [10] = assay: Antimicrobial activity against Micrococcus luteus under iron-sufficient condition by broth microdilution method
Escherichia coli [11] = assay: Antimicrobial activity against Escherichia coli EC14 under iron-deficient condition by broth microdilution method
Pseudomonas aeruginosa [12] = assay: Antimicrobial activity against Pseudomonas aeruginosa X621 under iron-sufficient condition by broth microdilution method
Klebsiella pneumoniae = assay: Antimicrobial activity against Klebsiella pneumoniae 700603 after 18 hrs by CLSI protocol based broth microdilution method; details: Klebsiella pneumoniae, 700603, 18 h
Acinetobacter baumannii = assay: Antimicrobial activity against Acinetobacter baumannii ATCC 17961 after 18 hrs by CLSI protocol based broth microdilution method; details: ATCC 17961, 18 h
Escherichia coli [13] = assay: Antimicrobial activity against Escherichia coli ATCC 25922 after 18 hrs by CLSI protocol based broth microdilution method; details: ATCC 25922, 18 h
Staphylococcus aureus [14] = assay: Antimicrobial activity against Staphylococcus aureus SG 511 after 18 hrs by CLSI protocol based broth microdilution method; details: SG 511, 18 h
Pseudomonas aeruginosa [15] = assay: Antimicrobial activity against Pseudomonas aeruginosa ATCC 27853 after 18 hrs by CLSI protocol based broth microdilution method; details: ATCC 27853, 18 h
Klebsiella aerogenes = assay: Antimicrobial activity against Enterobacter aerogenes ATCC 35029 after 18 hrs by CLSI protocol based broth microdilution method; details: ATCC 35029, 18 h
Enterococcus faecium = assay: Antimicrobial activity against Enterococcus faecium NCTC after 18 hrs by CLSI protocol based broth microdilution method
Staphylococcus aureus [16] = assay: Antimicrobial activity against Staphylococcus aureus X1.1
Streptococcus = assay: Antimicrobial activity against Streptococcus AC283
Streptococcus pneumoniae = assay: Antimicrobial activity against Streptococcus pneumoniae PARK
Staphylococcus aureus [17] = assay: Antimicrobial activity against Staphylococcus aureus V41

SMILES | MIC (Klebsiella pneumoniae) | MIC (Acinetobacter baumannii) | MIC (Escherichia coli [13]) | MIC (Staphylococcus aureus [14]) | MIC (Pseudomonas aeruginosa [15]) | MIC (Klebsiella aerogenes) | MIC (Enterococcus faecium) | other results
CN[C@H](CC(C)C)C(=O)N[C@H]1C(=O)N[C@@H](CC(N)=O)C(=O)N[C@H]2C(=O)N[C@H]3C(=O)N[C@H](C(=O)N[C@H](C(=O)O)c4cc(O)cc(O)c4-c4cc3ccc4O)[C@H](O)c3ccc(c(Cl)c3)Oc3cc2cc(c3O[C@@H]2O[C@H](CO)[C@@H](O)[C@H](O)[C@H]2O[C@H]2C[C@](C)(NC(=O)CCC(=O)N(O)CCCCCNC(=O)CCC(=O)N(CCCCNC(=O)c3cccc(O)c3O)CCCNC(=O)c3cccc(O)c3O)[C@H](O)[C@H](C)O2)Oc2ccc(cc2Cl)[C@H]1O | – | – | – | – | – | – | – | MIC (Pseudomonas aeruginosa [1]): > 128 µM; MIC (Pseudomonas aeruginosa [2]): > 128 µM; MIC (Pseudomonas aeruginosa [3]): > 128 µM; MIC (Staphylococcus aureus [4]): 8 µM (≈ 17.2 µg/mL); MIC (Staphylococcus aureus [5]): 8 µM (≈ 17.2 µg/mL); MIC (Micrococcus luteus [6]): 16 µM (≈ 34.4 µg/mL); MIC (Escherichia coli [7]): 128 µM (≈ 275 µg/mL); MIC (Escherichia coli [8]): 32 µM (≈ 68.8 µg/mL); MIC (Escherichia coli [9]): > 128 µM; MIC (Micrococcus luteus [10]): 16 µM (≈ 34.4 µg/mL); MIC (Escherichia coli [11]): > 128 µM; MIC (Pseudomonas aeruginosa [12]): > 128 µM
O=C(O)c1cn(C2CC2)c2cc(N3CCN(C(=O)CCC(=O)N(O)CCCCCO)CC3)c(F)cc2c1=O | 16 µM (≈ 8.52 µg/mL) | 16 µM (≈ 8.52 µg/mL) | 2 µM (≈ 1.07 µg/mL) | 32 µM (≈ 17 µg/mL) | 128 µM (≈ 68.2 µg/mL) | 4 µM (≈ 2.13 µg/mL) | > 128 µM | –
O=C(CCC(=O)N(CCCCNC(=O)c1cccc(O)c1O)CCCNC(=O)c1cccc(O)c1O)N[C@@H]1C(=O)N2C(C(=O)O)=C(Cl)CC[C@H]12 | – | – | – | – | – | – | – | MIC (Staphylococcus aureus [16]): 64 µg/mL (≈ 89.4 µM); MIC (Streptococcus): 16 µg/mL (≈ 22.3 µM); MIC (Streptococcus pneumoniae): 64 µg/mL (≈ 89.4 µM); MIC (Staphylococcus aureus [17]): 64 µg/mL (≈ 89.4 µM)
O=C(CCC(=O)N(O)CCCCCO)NCCCCCN(O)C(=O)CCC(=O)N1CCN(c2cc3c(cc2F)c(=O)c(C(=O)O)cn3C2CC2)CC1 | 128 µM (≈ 93.8 µg/mL) | 64 µM (≈ 46.9 µg/mL) | 2 µM (≈ 1.47 µg/mL) | 64 µM (≈ 46.9 µg/mL) | 64 µM (≈ 46.9 µg/mL) | 4 µM (≈ 2.93 µg/mL) | > 128 µM | –
CN[C@H](CC(C)C)C(=O)N[C@H]1C(=O)N[C@@H](CC(N)=O)C(=O)N[C@H]2C(=O)N[C@H]3C(=O)N[C@H](C(=O)N[C@H](C(=O)O)c4cc(O)cc(O)c4-c4cc3ccc4O)[C@H](O)c3ccc(c(Cl)c3)Oc3cc2cc(c3O[C@@H]2O[C@H](CO)[C@@H](O)[C@H](O)[C@H]2O[C@H]2C[C@](C)(NC(=O)CCC(=O)N(CCCCNC(=O)c3cccc(O)c3O)CCCNC(=O)c3cccc(O)c3O)[C@H](O)[C@H](C)O2)Oc2ccc(cc2Cl)[C@H]1O | – | – | – | – | – | – | – | MIC (Pseudomonas aeruginosa [1]): > 128 µM; MIC (Pseudomonas aeruginosa [2]): > 128 µM; MIC (Pseudomonas aeruginosa [3]): 32 µM (≈ 62.4 µg/mL); MIC (Staphylococcus aureus [4]): 32 µM (≈ 62.4 µg/mL); MIC (Staphylococcus aureus [5]): 32 µM (≈ 62.4 µg/mL); MIC (Micrococcus luteus [6]): 32 µM (≈ 62.4 µg/mL); MIC (Escherichia coli [7]): 128 µM (≈ 249 µg/mL); MIC (Escherichia coli [8]): > 128 µM; MIC (Escherichia coli [9]): > 128 µM; MIC (Micrococcus luteus [10]): 16 µM (≈ 31.2 µg/mL); MIC (Escherichia coli [11]): > 128 µM; MIC (Pseudomonas aeruginosa [12]): > 128 µM
O=C(CCC(=O)N(O)CCCCCO)N[C@@H](C(=O)N[C@@H]1C(=O)N2C(C(=O)O)=C(Cl)CC[C@H]12)c1ccccc1 | > 128 µM | ≥ 128 µM | > 128 µM | 16 µM (≈ 8.82 µg/mL) | > 128 µM | > 128 µM | > 128 µM | –

Further lines, with some results ahead:

MIC (Klebsiella pneumoniae) | MIC (Acinetobacter baumannii) | MIC (Escherichia coli [13]) | MIC (Staphylococcus aureus [14]) | MIC (Pseudomonas aeruginosa [15]) | MIC (Klebsiella aerogenes) | MIC (Enterococcus faecium) | SMILES | other results
> 128 µM | 64 µM (≈ 60.9 µg/mL) | 128 µM (≈ 122 µg/mL) | 64 µM (≈ 60.9 µg/mL) | > 128 µM | > 128 µM | > 128 µM | O=C(CCC(=O)N(O)CCCCCO)NCCCCCN(O)C(=O)CCC(=O)NCCCCCN(O)C(=O)CCC(=O)N[C@@H](C(=O)N[C@@H]1C(=O)N2C(C(=O)O)=C(Cl)CC[C@H]12)c1ccccc1 | –
> 128 µM | 32 µM (≈ 24 µg/mL) | ≥ 128 µM | 64 µM (≈ 48.1 µg/mL) | > 128 µM | > 128 µM | > 128 µM | O=C(CCC(=O)N(O)CCCCCO)NCCCCCN(O)C(=O)CCC(=O)N[C@@H](C(=O)N[C@@H]1C(=O)N2C(C(=O)O)=C(Cl)CC[C@H]12)c1ccccc1 | –
